One data set concerns HT-29. The data set can be described thus: Antiproliferative activity against human HT-29 cells after 48 hrs by MTT assay. In kind it is functional, cell-based. The settings on record: HT-29, 48 h. In general terms: Tetrazolium dyes change colour on reduction, which living cells bring about.
Another data set relates to HCT-116. The data set can be described thus: Antiproliferative activity against human HCT116 cells after 48 hrs by MTT assay. The data set is classed as functional, cell-based. The settings on record: HCT-116, 48 h.
The test system of another data set is PC-3. Briefly: Antiproliferative activity against human PC3 cells after 48 hrs by MTT assay. In kind it is functional, cell-based. The settings on record: PC-3, 48 h.
The subject of another data set is DU-145. The data set can be described thus: Antiproliferative activity against human DU145 cells after 48 hrs by MTT assay. The data set is classed as functional, cell-based. As to conditions: DU-145, 48 h.
The nature of data set [1]: 1-octanol/water partition coefficient, log P of the compound at 300 uM by UV-Vis spectrophotometric analysis. The data set is classed as physicochemical.

pIC50: −log10 of the molar value. A value given as a limit tells only on which side of the number the result lay.

For orientation: pIC50 means −log10 of the IC50, conventionally taken in molar units. A higher pIC50 goes with a low IC50. The term logP denotes a log measure of how a compound divides between an organic and an aqueous phase. A high value points to higher lipophilicity.

With `COc1ccc(/C=C/C(=O)c2cc(OC)c(OC)c(OC)c2)cc1OCCCC(=O)NCCCCN(CCCN)CCCCN`, the pIC50 in the data set with HT-29 is 4.13; with HCT-116, 4.13; with PC-3 it was 4.22; in the data set on DU-145, 4.08.

The compound `COc1ccc(/C=C/C(=O)c2cc(OC)c(OC)c(OC)c2)cc1OCCCC(=O)NCCCNCCCCNCCN` yielded a logP at 300 µM in data set [1] of -1.57. The pIC50 was under 4.00 with HT-29, 4.25 with HCT-116, 4.50 with PC-3 and 4.55 in the data set on DU-145.

The compound `COc1cc(C(=O)/C=C/c2ccc(OCCCC(=O)NCCCNCCCCNCCN)cc2)cc(OC)c1OC` registered a logP at 300 µM in data set [1] of -1.98. In addition, the pIC50 in the data set on HT-29 was 4.01; in the data set on HCT-116, 4.47; in the data set with PC-3, 4.47; with DU-145, 4.45.

`COc1cc(C(=O)/C=C/c2ccc(OCCCC(=O)NCCCNCCCCN)cc2)cc(OC)c1OC` showed a logP at 300 µM in data set [1] of -1.43. Besides, the pIC50 in the data set with HT-29, in the data set with HCT-116, in the data set with PC-3 and with DU-145 was under 4.00 in each case.

As to `COc1ccc(/C=C/C(=O)c2cc(OC)c(OC)c(OC)c2)cc1OCCCC(=O)NCCCNCCCCN`, the pIC50 with HT-29 was under 4.00; with HCT-116 it was under 4.00; with PC-3, 4.09; in the data set on DU-145, under 4.00.

As to `COc1ccc(/C=C/C(=O)c2cc(OC)c(OC)c(OC)c2)cc1OCCCC(=O)NCCCCN(CCCN)CCCCNCCCN`, the pIC50 in the data set with HT-29 was 4.05; in the data set on HCT-116, 4.53; in the data set with PC-3 it was 4.32; in the data set on DU-145, 4.07.

In the case of `COc1cc(C(=O)/C=C/c2ccc(OCCCC(=O)NCCCCN(CCCN)CCCCNCCCN)cc2)cc(OC)c1OC`, the pIC50 in the data set with HT-29 was 4.04; in the data set with HCT-116, 4.12; with PC-3, 4.09; in the data set with DU-145 it was 4.03.

In turn, `COc1ccc(/C=C/C(=O)c2cc(OC)c(OC)c(OC)c2)cc1` returned a logP at 300 µM in data set [1] of 3.1. Besides, the pIC50 in the data set with HT-29 was 5.13; in the data set on HCT-116 it was 4.97; with PC-3, 5.11; in the data set with DU-145, 4.86.

In turn, `COc1ccc(/C=C/C(=O)c2cc(OC)c(OC)c(OC)c2)cc1OCCCC(=O)NCCCCNCCCN` had a logP at 300 µM in data set [1] of -1.28. Also, the negative-log IC50 (pIC50) was under 4.00 with HT-29, 4.42 in the data set on HCT-116, 4.29 in the data set on PC-3 and 4.00 in the data set with DU-145.

Consider `COc1cc(C(=O)/C=C/c2ccc(OCCCC(=O)NCCCCN(CCCN)CCCCN)cc2)cc(OC)c1OC`, for which the pIC50 was 4.06 with HT-29, 4.53 in the data set on HCT-116, 4.26 in the data set with PC-3 and 4.06 in the data set with DU-145.

As to `COc1ccc(/C=C/C(=O)c2cc(OC)c(OC)c(OC)c2)cc1O`, the logP at 300 µM in data set [1] worked out at 2.99. Further, the pIC50 in the data set on HT-29 is 4.64; in the data set on HCT-116 it was 6.07; with PC-3, 7.05; with DU-145 it was 5.20.

As to `COc1cc(C(=O)/C=C/c2ccc(OCCCC(=O)NCCCCNCCCN)cc2)cc(OC)c1OC`, the pIC50 is under 4.00 in the data set on HT-29, 4.70 with HCT-116, 4.10 in the data set on PC-3 and 4.26 in the data set on DU-145.
